Patent publication US5047406A, “Substituted cyclohexanols as central nervous system agents” (Warner-Lambert Co., priority 1990, dated 1991)
Where two headings read alike, the source gives them in different places.

Experiments:
[1] = target: T1, [^3 H]-Spiroperidol Binding (Homo sapiens, UniProt P14416); experiment: Inhibition of [^3 H]-spiroperidol binding in a receptor assay
T1 construct: receptor assay described by D. Grigoriadis and P. Seeman, Journal of Neurochemistry, Volume 44, pages 1925-1935 (1985); from tissue
From the text: (§1) The above test methods are incorporated herein by reference.

[2] = system: Locomotor Activity in Mice; experiment: Inhibition of locomotor activity in mice; format: in vivo; conditions: for ED50: Mus musculus, ip; for Inhibition of Locomotor Activity in Mice ED50: IP
From the text: as §1

[3] = system: Brain Striatal Dopamine Synthesis; experiment: Effects on brain striatal dopamine synthesis in rats; format: in vivo; conditions: for inhibition in vivo at 10 mg/kg: Rattus norvegicus; for Effects on Brain Striatal Dopamine Synthesis in Rats, % inhibition: 10 mg/kg
From the text: as §1

[4] = target: sigma opiate binding site; experiment: Inhibition of [^3 H] DTG (ditoluoyl guanidine; a sigma ligand) binding
Description: The compounds of Formula I are valuable dopaminergic agents. […] Thus, the compounds of Formula I were tested for their ability to inhibit locomotor activity in mice according to the assay described by J. R. McLean, et al, Pharmacology, Biochemistry and Behavior, Volume 8, pages 97-99 (1978); for their ability to inhibit [[…] ]-spiroperidol binding in a receptor assay described by D. Grigoriadis and P. Seeman, Journal of Neurochemistry, Volume 44, pages 1925-1935 (1985); and for their ability to inhibit dopamine synthesis in rats according to the protocol described by J. R. Walters and R. H. Roth, Naunyn-Schmiedeberg's Archives of Pharmacology, Volume 296, pages 5-14 (1976). The above test methods are incorporated herein by reference. The data in the table show the dopaminergic activity of representative compounds of Formula I. Additionally, the compounds of Formula I are ligands for the sigma opiate binding site. The data in the table show the inhibition of [^3 H] DTG (ditoluoyl guanidine; a sigma ligand) binding by representative compounds of Formula I, according to the method of E. Weber, et al, Proceedings of the National Academy of Sciences, USA, Volume 83, pages 8784-8788 (1986).

[5] = read-out: Inhibition of [^3 H]-Spiroperidol Binding IC50
[6] = Inhibition of [^3 H]-Spiroperidol Binding IC50

T1 sequence (P14416 whole entry): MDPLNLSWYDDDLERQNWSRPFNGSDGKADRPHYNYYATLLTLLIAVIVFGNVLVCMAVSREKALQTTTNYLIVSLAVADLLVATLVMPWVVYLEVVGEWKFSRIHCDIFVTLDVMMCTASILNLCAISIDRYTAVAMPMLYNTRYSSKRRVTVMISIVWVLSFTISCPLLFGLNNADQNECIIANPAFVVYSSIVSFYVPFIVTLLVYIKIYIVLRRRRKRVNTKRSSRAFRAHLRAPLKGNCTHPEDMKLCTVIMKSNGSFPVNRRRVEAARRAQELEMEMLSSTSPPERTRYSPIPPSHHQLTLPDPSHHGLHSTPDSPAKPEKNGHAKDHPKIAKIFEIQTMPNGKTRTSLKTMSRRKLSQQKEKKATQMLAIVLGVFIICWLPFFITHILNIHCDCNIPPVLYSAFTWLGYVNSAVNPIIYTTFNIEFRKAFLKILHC

IC50 [1, 5] [µM]	Structure (SMILES)	ED50 [2] [mg/kg]	inhibition in vivo at 10 mg/kg ([3]; ip) [%]	inhibition in vivo at 10 mg/kg ([3]; IP) [%]	further results
4.84	CN(C(=O)c1ccccc1)[C@H]1CC[C@H](N2CCN(c3ccccn3)CC2)CC1 [Example 42, trans N-Methyl-N-[4-[4-(2-pyridinyl)-1-piperazinyl]cyclohexyl]benzamide]	2.4	15	–	–
0.932	COc1ccc(C2(O)CCC(CCN3CCN(c4ccccn4)CC3)CC2)cc1 (stereo not drawn) [Example 15, trans-1-(4-Methoxyphenyl)-4-[2-[4-(2-pyridinyl)-1-piperazinyl]ethyl]cyclohexanol]	–	–	–	Inhibition of Locomotor Activity in Mice ED50 [2]: 0.3 mg/kg; Effects on Brain Striatal Dopamine Synthesis in Rats, % inhibition ([3]; IP): 52%
0.169	COc1ccc(C2(O)CCC(CCN3CCN(c4ccccn4)CC3)CC2)cc1 (stereo not drawn) [Example 8, cis-1-(4-Methoxyphenyl)-4-[2-[4-(2-pyridinyl)-1-piperazinyl]ethyl]cyclohexanol]	–	–	–	Inhibition of Locomotor Activity in Mice ED50 [2]: 0.9 mg/kg; Effects on Brain Striatal Dopamine Synthesis in Rats, % inhibition ([3]; IP): 88%
–	O=C(N[C@H]1CC[C@H](CN2CCN(c3ccccn3)CC2)CC1)c1ccccc1 [Example 60, trans N-[4-[[4-(2-Pyridinyl)-1-piperazinyl]methyl]cyclohexyl]benzamide]	1	36	–	–
0.262	OC1(c2cccs2)CCC(CCN2CCN(c3ccccn3)CC2)CC1 (stereo not drawn) [Example 3, cis-4-[2-[4-(2-Pyridinyl)-1-piperazinyl]ethyl]-1-(2-thienyl)cyclohexanol]	1.3	67	–	IC50 [4]: 0.006 µM
–	O=C(N[C@H]1CC[C@H](CCN2CC=C(c3ccccc3)CC2)CC1)c1ccccc1 [Example 72, trans N-[4-[2-(3,6-Dihydro-4-phenyl-1(2H)-pyridinyl)ethyl]cyclohexyl]benzamide]	0.27	–	74	IC50 [1, 6]: 0.1 µM
3.28	O=C(N[C@H]1CC[C@@H](CCN2CCN(c3ccccn3)CC2)CC1)c1ccccc1 [Example 53, cis N-[4-[2-[4-(2-Pyridinyl)-1-piperazinyl]ethyl]cyclohexyl]benzamide]	4.5	36	–	–
0.44	O=C(N[C@H]1CC[C@H](CCN2CCN(c3ccccn3)CC2)CC1)c1ccccc1 [Example 52, trans N-[4-[2-[4-(2-Pyridinyl)-1-piperazinyl]ethyl]cyclohexyl]benzamide]	0.16	87	–	–
–	O=C(N[C@H]1CC[C@H](N2CC=C(c3ccccc3)CC2)CC1)c1ccsc1 [Example 48, trans N-[4-(3,6-Dihydro-4-phenyl-1(2H)-pyridinyl)cyclohexyl]-3-thiophenecarboxamide]	0.27	–	88	IC50 [1, 6]: 0.09 µM
–	CC(=O)N[C@H]1CC[C@H](CCN2CCN(c3ccccn3)CC2)CC1 [Example 58, trans N-[4-[2-[4-(2-Pyridinyl)-1-piperazinyl]ethyl]cyclohexyl]acetamide]	0.03	87	–	–
–	OC1(c2ccc(F)cc2)CCC(CCN2CCN(c3ccccn3)CC2)CC1 (stereo not shown) [Example 7, 1-(4-Fluorophenyl)-4-[2-[4-(2-pyridinyl)-1-piperazinyl]ethyl]cyclohexanol]	0.64	48	–	IC50 [4]: 0.0165 µM; inhibition at 10 µM ([1]; at 10^-5 M): 94%
0.537	OC1(c2ccccc2)CCC(CCN2CCN(c3ccccn3)CC2)CC1 (stereo not shown) [Example 5, 1-Phenyl-4-[2-[4-(2-pyridinyl)-1-piperazinyl]ethyl]cyclohexanol]	1.8	35	–	–
0.312	OC1(c2ccsc2)CCC(CCN2CCN(c3ccccn3)CC2)CC1 (stereo not shown) [Example 14, 4-[2-[4-(2-Pyridinyl)-1-piperazinyl]ethyl]-1-(3-thienyl)cyclohexanol]	0.48	37	–	IC50 [4]: 0.0045 µM
–	O=C(N[C@H]1CC[C@H](CCN2CCN(c3ccccn3)CC2)CC1)c1ccc(Cl)c(Cl)c1 [Example 59, trans 3,4-Dichloro-N-[4-[2-[4-(2-pyridinyl)-1-piperazinyl]ethyl]cyclohexyl]benzamide]	14.4	7	–	–
0.341	OC1(c2cccs2)CCC(CCN2CCN(c3ccccn3)CC2)CC1 (stereo not drawn) [Example 4, trans-4-[2-[4-(2-Pyridinyl)-1-piperazinyl]ethyl]-1-(2-thienyl)cyclohexanol]	–	–	–	IC50 [4]: 0.005 µM; Inhibition of Locomotor Activity in Mice ED50 [2]: 1.1 mg/kg; Effects on Brain Striatal Dopamine Synthesis in Rats, % inhibition ([3]; IP): 47%
0.29	Cc1ccc(C(=O)N[C@H]2CC[C@H](CCN3CCN(c4ccccn4)CC3)CC2)cc1 [Example 54, trans 4-Methyl-N-[4-[2-[4-(2-pyridinyl)-1-piperazinyl]ethyl]cyclohexyl]benzamide]	0.11	0	–	–
2.8	O=C(N[C@H]1CC[C@H](N2CCN(c3ccccn3)CC2)CC1)c1ccccc1 [Example 40, trans N-[4-[4-(2-Pyridinyl)-1-piperazinyl]cyclohexyl]benzamide]	0.36	65	–	–

Structure (SMILES)	IC50 [1, 5] [µM]	ED50 [2] [mg/kg]	inhibition in vivo at 10 mg/kg ([3]; ip) [%]	inhibition in vivo at 10 mg/kg ([3]; IP) [%]	further results
O=C(N[C@H]1CC[C@H](N2CC=C(c3ccccc3)CC2)CC1)c1cccnc1 [Example 49, trans N-[4-(3,6-Dihydro-4-phenyl-1(2H)-pyridinyl)cyclohexyl]-3-pyridinecarboxamide]	0.6	2.4	–	72	–
OC1(c2ccccn2)CCC(CCN2CC=C(c3ccccc3)CC2)CC1 (stereo not drawn) [Example 11, cis-1-(2-Pyridinyl)-4-[2-[3,6-dihydro-4-phenyl-1(2H)-pyridinyl]ethyl]cyclohexanol]	0.156	0.64	–	–	IC50 [4]: 0.0035 µM
O=C(N[C@H]1CC[C@H](CCN2CC=C(c3ccccc3)CC2)CC1)c1cccs1 [Example 71, trans N-[4-[2-(3,6-Dihydro-4-phenyl-1(2H)-pyridinyl)ethyl]cyclohexyl]-2-thiophenecarboxamide]	0.21	0.21	–	79	–
O=C(N[C@H]1CC[C@H](N2CC=C(c3ccccc3)CC2)CC1)c1cccs1 [Example 47, trans N-[4-(3,6-Dihydro-4-phenyl-1(2H)-pyridinyl)cyclohexyl]-2-thiophenecarboxamide]	0.3	0.23	–	74	–
O=C(N[C@H]1CC[C@H](N2CC=C(c3ccccc3)CC2)CC1)c1ccccc1 [Example 46, trans N-[4-(3,6-Dihydro-4-phenyl-1(2H)-pyridinyl)cyclohexyl]benzamide]	0.36	0.16	–	95	–
OC1(c2cccnc2)CCC(CCN2CC=C(c3ccccc3)CC2)CC1 (stereo not drawn) [Example 12, cis-1-(3-Pyridinyl)-4-[2-[3,6-dihydro-4-phenyl-1(2H)-pyridinyl]ethyl]cyclohexanol]	0.116	0.25	–	79	–
